Results taken from patent US20240131168A1, “NAPHTHALENE RING-CONTAINING COMPOUND, PHARMACEUTICAL COMPOSITION CONTAINING SAME, AND USE THEREOF” (JIANGSU YAHONG MEDITECH CO., LTD., priority 2021, published 2024).

How the values were obtained:
Assay type in all cases: cell-based
TamR-MCF-7 = experiment: CellTiter-Glo cell proliferation inhibition, TamR-MCF-7; settings: 144 h; TamR-MCF-7 (CTG), 6 days, starting concentration 10 μM; read-out: IH % max (maximum inhibition percentage)
In short: (§1)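 MCF-7, TamR-MCF-7, and CRISPR-edited MCF-7 ER D538G or Y537S cells were seeded at 1,000 or 2,000 cells/well in EMEM and cultured 24 h. They were then exposed to a 4-fold, 10-point series (top 10 µM before addition to wells) for 6 days or 72 h at 37 °C. CellTiter-Glo luminescence gave IC50 and maximum % inhibition.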

MCF-7 ER^D538G = experiment: CellTiter-Glo cell proliferation inhibition, MCF-7 ER^D538G; settings: Homo sapiens, MCF7, 144 h, MCF-7 ER^D538G (CTG), 6 days, starting concentration 10 μM; for inhibition at up to 10 µM: read-out: IH % max (maximum inhibition percentage)
In short: as §1

MCF-7 ER^Y537S = experiment: CellTiter-Glo cell proliferation inhibition, MCF-7 ER^Y537S; settings: Homo sapiens, MCF7, 144 h; MCF-7 ER^Y537S (CTG), 6 days, starting concentration 10 μM; read-out: IH % max (maximum inhibition percentage)
In short: as §1

MDA-MB-468 = experiment: CellTiter-Glo cell proliferation inhibition, MDA-MB-468; settings: Homo sapiens, 144 h; MDA-MB-468 (CTG), 6 days, starting concentration 10 μM; read-out: IH % max (maximum inhibition percentage)
MDA-MB-231 = experiment: CellTiter-Glo cell proliferation inhibition, MDA-MB-231; settings: Homo sapiens, 144 h; MDA-MB-231 (CTG), 6 days, starting concentration 10 μM; read-out: IH % max (maximum inhibition percentage)

Which inhibition at up to 10 µM (TamR-MCF-7) does the source give for `CCN(CCOc1ccc(Oc2c(-c3ccc(S(C)(=O)=O)cc3)ccc3cc(O)ccc23)cc1)CC(=O)N1CCN(c2ccc3c(c2)C(=O)N(C2CCC(=O)NC2=O)C3=O)CC1` (stereo not shown) [Compound D8, 2-(2,6-dioxopiperidin-3-yl)-5-(4-(N-ethyl-N-(2-(4-((6-hydroxy-2-(4-(methylsulfonyl)phenyl)naphthalen-1-yl)oxy)phenoxy)ethyl)glycyl)piperazin-1-yl)isoindoline-1,3-dione] here?
Its inhibition at up to 10 µM is 35%.

What about the inhibition at up to 10 µM (MCF-7 ER^D538G) of the same compound?
Its inhibition at up to 10 µM is 44%.

And the inhibition at up to 10 µM (MCF-7 ER^Y537S)?
The inhibition at up to 10 µM was 33%.

What about the inhibition at up to 10 µM (MDA-MB-468) of the same compound?
Its inhibition at up to 10 µM is 68%.

How did the inhibition at up to 10 µM (TamR-MCF-7) turn out when `CS(=O)(=O)c1ccc(-c2ccc3cc(O)ccc3c2Oc2ccc(OCCOCCOCCN3CCN(c4ccc5c(c4)CN(C4CCC(=O)NC4=O)C5=O)CC3)cc2)cc1` (stereo not shown) [Compound D30] was run?
Its inhibition at up to 10 µM is 30%.

What about the inhibition at up to 10 µM (MCF-7 ER^D538G) of the same compound?
Its inhibition at up to 10 µM is 65%.

For `C[C@@H]1CN(CCOCC(=O)N2CCN(c3ccc4c(c3)C(=O)N(C3CCC(=O)NC3=O)C4=O)CC2)[C@@H](C)CN1CCOc1ccc(Oc2c(-c3ccc(S(C)(=O)=O)cc3)ccc3cc(O)ccc23)cc1` (stereo partly drawn) [Compound D15, 2-(2,6-dioxopiperidin-3-yl)-5-(4-(2-(2-((2S,5R)-4-(2-(4-((6-hydroxy-2-(4-(methylsulfonyl)phenyl)naphthalen-1-yl)oxy)phenoxy)ethyl)-2,5-dimethylpiperazin-1-yl)ethoxy)acetyl)piperazin-1-yl)isoindoline-1,3-dione], which inhibition at up to 10 µM (MCF-7 ER^D538G) is on record?
Its inhibition at up to 10 µM is 48%.

What about the inhibition at up to 10 µM (MCF-7 ER^Y537S) of the same compound?
Its inhibition at up to 10 µM is 46%.

How did the inhibition at up to 10 µM (TamR-MCF-7) turn out when `CS(=O)(=O)c1ccc(-c2ccc3cc(O)ccc3c2Oc2ccc(OCCOCCOCCN3CCN(c4ccc5c(c4)C(=O)N(C4CCC(=O)NC4=O)C5)CC3)cc2)cc1` (stereo not shown) [Compound D22, 3-(6-(4-(2-(2-(2-(4-((6-hydroxy-2-(4-(methylsulfonyl)phenyl)naphthalen-1-yl)oxy)phenoxy)ethoxy)ethoxy)ethyl)piperazin-1-yl)-1-oxoisoindolin-2-yl)piperidine-2,6-dione] was run?
Its inhibition at up to 10 µM is 33%.

What about the inhibition at up to 10 µM (MCF-7 ER^D538G) of the same compound?
The inhibition at up to 10 µM was 61%.

What about the inhibition at up to 10 µM (MDA-MB-231) of the same compound?
Its inhibition at up to 10 µM is 36%.

Which results are given for `CCN(CCOCCOCCN1CCN(c2ccc3c(c2)C(=O)N(C2CCC(=O)NC2=O)C3=O)CC1)CCOc1ccc(Oc2c(-c3ccc(S(C)(=O)=O)cc3)ccc3cc(O)ccc23)cc1` (stereo not shown) [Compound D28, 2-(2,6-dioxopiperidin-3-yl)-5-(4-(2-(2-(2-(ethyl(2-(4-((6-hydroxy-2-(4-(methylsulfonyl)phenyl)naphthalen-1-yl)oxy)phenoxy)ethyl)amino)ethoxy)ethoxy)ethyl)piperazin-1-yl)isoindoline-1,3-dione]?
inhibition at up to 10 µM (TamR-MCF-7): 42%; IC50 (MCF-7 ER^D538G): 568 nM; inhibition at up to 10 µM (MCF-7 ER^D538G): 81%; inhibition at up to 10 µM (MCF-7 ER^Y537S): 49%; inhibition at up to 10 µM (MDA-MB-231): 68%

With `CS(=O)(=O)c1ccc(-c2ccc3cc(O)ccc3c2Oc2ccc(OCCOCCOCCOCCOc3ccc4c(c3)C(=O)N(C3CCC(=O)NC3=O)C4)cc2)cc1` (stereo not shown) [Compound D35, 3-(6-(2-(2-(2-(2-(4-((6-hydroxy-2-(4-(methylsulfonyl)phenyl)naphthalen-1-yl)oxy)phenoxy)ethoxy)ethoxy)ethoxy)ethoxy)-1-oxoisoindolin-2-yl)piperidine-2,6-dione] as the compound, how does the inhibition at up to 10 µM (MCF-7 ER^D538G) read?
The inhibition at up to 10 µM was 39%.

`CS(=O)(=O)c1ccc(-c2ccc3cc(O)ccc3c2Oc2ccc(OCCOCCOCCOCCN3CCN(c4ccc5c(c4)C(=O)N(C4CCC(=O)NC4=O)C5)CC3)cc2)cc1` (stereo not shown) [Compound D21] was tested. Which inhibition at up to 10 µM (MCF-7 ER^D538G) did it give?
The inhibition at up to 10 µM was 55%.

For `C[C@@H]1CN(CCOc2ccc(Oc3c(-c4ccc(S(C)(=O)=O)cc4)ccc4cc(O)ccc34)cc2)[C@@H](C)CN1CCOCC(=O)N1CCN(c2ccc3c(c2)CN(C2CCC(=O)NC2=O)C3=O)CC1` (stereo partly drawn) [Compound D9, 3-(5-(4-(2-(2-((2R,5S)-4-(2-(4-((6-hydroxy-2-(4-(methylsulfonyl)phenyl)naphthalen-1-yl)oxy)phenoxy)ethyl)-2,5-dimethylpiperazin-1-yl)ethoxy)acetyl)piperazin-1-yl)-1-oxoisoindolin-2-yl)piperidine-2,6-dione], which inhibition at up to 10 µM (TamR-MCF-7) is on record?
Its inhibition at up to 10 µM is 31%.

What about the IC50 (MCF-7 ER^D538G) of the same compound?
Its IC50 is 960 nM.

What about the inhibition at up to 10 µM (MCF-7 ER^D538G) of the same compound?
Its inhibition at up to 10 µM is 65%.

What about the inhibition at up to 10 µM (MCF-7 ER^Y537S) of the same compound?
The inhibition at up to 10 µM was 34%.

And the inhibition at up to 10 µM (MDA-MB-468)?
Its inhibition at up to 10 µM is 60%.

With `CCN(CCCCCN(C)CC(=O)N1CCN(c2ccc3c(c2)C(=O)N(C2CCC(=O)NC2=O)C3=O)CC1)CCOc1ccc(Oc2c(-c3ccc(S(C)(=O)=O)cc3)ccc3cc(O)ccc23)cc1` (stereo not shown) [Compound D31, 2-(2,6-dioxopiperidin-3-yl)-5-(4-(N-(5-(ethyl(2-(4-((6-hydroxy-2-(4-(methylsulfonyl))phenyl)naphthalen-1-yl)oxy)phenoxy)ethyl)aminopentyl)-N-methylglycyl)piperazin-1-yl)isoindoline-1,3-dione] as the compound, how does the inhibition at up to 10 µM (MCF-7 ER^D538G) read?
The inhibition at up to 10 µM was 90%.

What about the inhibition at up to 10 µM (MCF-7 ER^Y537S) of the same compound?
The inhibition at up to 10 µM was 73%.

And the inhibition at up to 10 µM (MDA-MB-231)?
Its inhibition at up to 10 µM is 56%.

And the inhibition at up to 10 µM (MDA-MB-468)?
Its inhibition at up to 10 µM is 100%.

How did the inhibition at up to 10 µM (TamR-MCF-7) turn out when `CCN(CCOc1ccc(Oc2c(-c3ccc(S(C)(=O)=O)cc3)ccc3cc(O)ccc23)cc1)C(=O)c1ccc(CCC2CCN(C3CCN(c4ccc5c(c4)C(=O)N(C4CCC(=O)NC4=O)C5=O)CC3)CC2)cc1` (stereo not shown) [Compound D34, 4-(2-(1′-(2-(2,6-dioxopiperidin-3-yl)-1,3-dioxoisoindolin-5-yl)-[1,4′-bipiperidin]-4-yl)ethyl)-N-ethyl-N-(2-(4-((6-hydroxy-2-(4-(methylsulfonyl)phenyl)naphthalen-1-yl)oxy)phenoxy)ethyl)benzamide] was run?
The inhibition at up to 10 µM was 41%.

What about the IC50 (MCF-7 ER^D538G) of the same compound?
Its IC50 is 182 nM.

And the inhibition at up to 10 µM (MCF-7 ER^D538G)?
Its inhibition at up to 10 µM is 82%.

And the inhibition at up to 10 µM (MCF-7 ER^Y537S)?
The inhibition at up to 10 µM was 60%.

What about the inhibition at up to 10 µM (MDA-MB-231) of the same compound?
Its inhibition at up to 10 µM is 37%.

For `CS(=O)(=O)c1ccc(-c2ccc3cc(O)ccc3c2Oc2ccc(N3CCN(CCCCCOCC(=O)N4CCN(c5ccc6c(c5)CN(C5CCC(=O)NC5=O)C6=O)CC4)CC3)cc2)cc1` (stereo not shown) [Compound D11, 3-(5-(4-(2-((5-(4-(4-((6-hydroxy-2-(4-(methylsulfonyl)phenyl)naphthalen-1-yl)oxy)phenyl)piperazin-1-yl)pentyl)oxy)acetyl)piperazin-1-yl)-1-oxoisoindolin-2-yl)piperidine-2,6-dione], which IC50 (MCF-7 ER^D538G) is on record?
Its IC50 is 788 nM.

And the inhibition at up to 10 µM (MCF-7 ER^D538G)?
Its inhibition at up to 10 µM is 54%.

And the inhibition at up to 10 µM (MCF-7 ER^Y537S)?
Its inhibition at up to 10 µM is 52%.

Which results are given for `CS(=O)(=O)c1ccc(-c2ccc3cc(O)ccc3c2Oc2ccc(OCCOCCOCCOCCN3CCN(c4ccc5c(c4)C(=O)N(C4CCC(=O)NC4=O)C5=O)CC3)cc2)cc1` (stereo not shown) [Compound D19]?
inhibition at up to 10 µM (TamR-MCF-7): 39%; inhibition at up to 10 µM (MCF-7 ER^D538G): 73%
